Results reported in ChEMBL document CHEMBL3232786, “Therapeutic utility of cannabinoid receptor type 2 (CB(2)) selective agonists” (J Med Chem, 2013).

Key:
[1] = target: T1, Cannabinoid receptor 2 (Homo sapiens, UniProt P34972); test: Displacement of [3H]-CP55940 from human CB2 receptor expressed in CHO-K1 cells by liquid scintillation counting; type: cell-based
[2] = target: T2, Cannabinoid receptor 1 (Homo sapiens, UniProt P21554); test: Displacement of [3H]-CP55940 from human CB1 receptor expressed in CHO-K1 cells by liquid scintillation counting; type: cell-based; settings: read-out: EC50 (the source's name)
[3] = target: T2, Cannabinoid receptor 1; test: Agonist activity at human CB1 receptor
[4] = target: T1, Cannabinoid receptor 2; test: Agonist activity at human CB2 receptor
[5] = target: T2, Cannabinoid receptor 1; test: Binding affinity to CB1 receptor (unknown origin)
[6] = target: T3, Cannabinoid receptor 2 (Rattus norvegicus, UniProt Q9QZN9); test: Inverse agonist activity at rat CB2 receptor expressed in CHO-K1 cells assessed as inhibition of forskolin-induced cAMP accumulation; type: functional, cell-based
T3 sequence (Q9QZN9 whole entry): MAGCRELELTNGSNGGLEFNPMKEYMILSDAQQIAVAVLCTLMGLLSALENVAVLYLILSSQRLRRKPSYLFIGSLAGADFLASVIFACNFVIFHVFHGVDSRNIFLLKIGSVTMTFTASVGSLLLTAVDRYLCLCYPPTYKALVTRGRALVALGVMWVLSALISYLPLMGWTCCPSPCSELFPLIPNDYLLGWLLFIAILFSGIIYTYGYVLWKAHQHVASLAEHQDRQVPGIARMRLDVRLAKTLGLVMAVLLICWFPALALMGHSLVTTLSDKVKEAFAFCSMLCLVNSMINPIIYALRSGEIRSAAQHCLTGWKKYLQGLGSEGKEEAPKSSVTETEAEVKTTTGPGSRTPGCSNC

[7] = target: T2, Cannabinoid receptor 1; test: Displacement of [3H]-CP55940 from human CB1 receptor by liquid scintillation counting
[8] = target: T4, Cannabinoid receptor 1 (Rattus norvegicus, UniProt P20272); test: Displacement of [3H]-CP55940 from CB1 receptor of rat brain
[9] = target: T1, Cannabinoid receptor 2; test: Displacement of [3H]-CP55940 from human CB2 receptor expressed in HEK cells by liquid scintillation counting; type: cell-based, HEK293
[10] = target: T1, Cannabinoid receptor 2; test: Agonist activity at human CB2 receptor expressed in Sf9 membranes assessed as effect on [35S]-GTPgammaS binding after 30 mins by scintillation counting; type: functional, cell membranes
[11] = organism: Homo sapiens; test: Selectivity ratio of Ki for human CB1 receptor to Ki for human CB2 receptor
[12] = target: T1, Cannabinoid receptor 2; test: Agonist activity at human CB2 receptor expressed in CHO-K1 cells assessed as inhibition of forskolin-induced cAMP accumulation by TR-FRET assay; type: functional, cell-based
[13] = target: T2, Cannabinoid receptor 1; test: Agonist activity at human CB1 receptor expressed in CHO-K1 cells assessed as inhibition of forskolin-induced cAMP accumulation by TR-FRET assay; type: functional, cell-based
[14] = target: T4, Cannabinoid receptor 1; test: Displacement of [3H]-CP55940 from CB1 receptor of rat cerebellar membranes by liquid scintillation counting in presence of serine protease inhibitor PMSF; set-up: species or system Cerebellum, Membrane
[15] = target: T3, Cannabinoid receptor 2; test: Displacement of [3H]-CP55940 from CB2 receptor of rat spleen membranes by liquid scintillation counting in presence of serine protease inhibitor PMSF; type: tissue-based, Membrane
[16] = organism: Rattus norvegicus; test: Selectivity ratio of Ki for CB2 receptor of rat spleen membranes to Ki for CB1 receptor of rat cerebellar membranes; type: tissue-based
[17] = target: T1, Cannabinoid receptor 2; test: Agonist activity at human CB2 receptor assessed as inhibition of forskolin-induced cAMP production preincubated for 15 mins followed by forskolin challenge measured after 30 mins by HTRF assay; type: functional
[18] = target: T1, Cannabinoid receptor 2; test: Binding affinity to CB2 receptor (unknown origin)
[19] = target: T1, Cannabinoid receptor 2; test: Agonist activity at human CB2 receptor assessed as inhibition of forskolin-induced cAMP production preincubated for 15 mins followed by forskolin challenge measured after 30 mins by HTRF assay relative to control; type: functional
[20] = target: T2, Cannabinoid receptor 1; test: Agonist activity at human CB1 receptor assessed as inhibition of forskolin-induced cAMP production preincubated for 15 mins followed by forskolin challenge measured after 30 mins by HTRF assay; type: functional
[21] = target: T1, Cannabinoid receptor 2; test: Agonist activity at human CB2 receptor expressed in Saccharomyces cerevisiae MMY23 using fluorescein di-beta-D-glucopyranoside as substrate after 24 hrs by fluorescence-based assay
[22] = tested on: Mus musculus; test: Antinociceptive activity against iv dosed ICR mouse measured at 20 mins by tail flick test; type: functional
[23] = target: T1, Cannabinoid receptor 2; test: Agonist activity at human CB2 receptor expressed in human SK-N-MC cells by CRE-beta galactosidase reporter gene assay; type: functional, cell-based
[24] = target: T2, Cannabinoid receptor 1; test: Agonist activity at human CB1 receptor expressed in human SK-N-MC cells by CRE-beta galactosidase reporter gene assay; type: functional, cell-based
[25] = target: T1, Cannabinoid receptor 2; test: Binding affinity to human CB2 receptor
[26] = target: T4, Cannabinoid receptor 1; test: Binding affinity to rat CB1 receptor
[27] = Selectivity ratio of Ki for rat CB1 receptor to Ki for human CB2 receptor
[28] = target: T2, Cannabinoid receptor 1; test: Agonist activity at human CB1 receptor expressed in human SK-N-MC cells at 1 uM by CRE-beta galactosidase reporter gene assay; type: functional, cell-based
[29] = target: T1, Cannabinoid receptor 2; test: Agonist activity at human CB2 receptor transfected in CHO-K1 cells assessed as cAMP change; type: functional, cell-based

T4 sequence (P20272 whole entry): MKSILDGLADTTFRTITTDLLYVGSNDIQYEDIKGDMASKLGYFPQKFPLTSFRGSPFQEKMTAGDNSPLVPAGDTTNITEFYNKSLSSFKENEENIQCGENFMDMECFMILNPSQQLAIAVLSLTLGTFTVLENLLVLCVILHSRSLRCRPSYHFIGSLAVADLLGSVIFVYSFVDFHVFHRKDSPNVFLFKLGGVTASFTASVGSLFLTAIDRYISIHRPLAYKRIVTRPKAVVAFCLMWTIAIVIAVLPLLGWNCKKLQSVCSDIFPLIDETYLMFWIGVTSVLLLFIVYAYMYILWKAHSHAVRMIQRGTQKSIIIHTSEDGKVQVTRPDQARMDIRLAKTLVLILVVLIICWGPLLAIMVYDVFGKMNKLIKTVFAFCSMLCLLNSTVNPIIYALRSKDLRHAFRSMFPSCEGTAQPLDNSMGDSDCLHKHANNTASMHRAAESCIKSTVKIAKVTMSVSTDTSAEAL
T1 sequence (P34972 whole entry): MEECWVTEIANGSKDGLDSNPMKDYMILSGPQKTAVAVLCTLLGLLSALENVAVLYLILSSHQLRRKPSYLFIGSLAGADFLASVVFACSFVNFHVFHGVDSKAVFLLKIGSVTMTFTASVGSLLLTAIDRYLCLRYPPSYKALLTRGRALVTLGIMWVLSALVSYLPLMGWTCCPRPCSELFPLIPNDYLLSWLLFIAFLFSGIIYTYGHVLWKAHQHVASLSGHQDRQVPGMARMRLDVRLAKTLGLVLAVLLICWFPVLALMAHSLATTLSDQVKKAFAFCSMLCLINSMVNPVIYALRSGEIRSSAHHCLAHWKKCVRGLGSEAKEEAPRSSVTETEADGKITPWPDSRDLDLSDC
T2 sequence (P21554 whole entry): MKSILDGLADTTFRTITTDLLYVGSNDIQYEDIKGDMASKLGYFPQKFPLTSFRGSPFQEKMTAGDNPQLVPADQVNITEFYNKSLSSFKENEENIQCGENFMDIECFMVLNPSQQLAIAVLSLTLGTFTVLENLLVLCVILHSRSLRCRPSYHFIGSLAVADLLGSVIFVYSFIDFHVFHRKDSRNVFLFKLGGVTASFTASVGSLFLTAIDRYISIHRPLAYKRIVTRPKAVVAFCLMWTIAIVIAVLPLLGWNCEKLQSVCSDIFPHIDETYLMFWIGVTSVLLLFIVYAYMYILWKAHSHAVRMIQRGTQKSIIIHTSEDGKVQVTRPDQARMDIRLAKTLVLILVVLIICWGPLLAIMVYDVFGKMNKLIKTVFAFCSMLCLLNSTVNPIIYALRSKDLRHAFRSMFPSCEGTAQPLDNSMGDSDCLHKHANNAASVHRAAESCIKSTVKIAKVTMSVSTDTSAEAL

Q: What does the source list for `CC(C)(C)c1cn(C[C@H]2CCCO2)/c(=N/C(=O)c2cc(C(F)(F)F)ccc2OCc2ccccn2)s1`?
A: EC50 [1]: 1 nM; IC50 [2]: > 27000 nM

Q: For `COc1ccc2c(c1)c(CCN1CCOCC1)c(C)n2C(=O)c1cccc(Cl)c1Cl`, which Ki [3] is on record?
A: The Ki was 4800 nM.

Q: And the Ki [4]?
A: Its Ki is 3.8 nM.

Q: With `CCCn1c(C)c(C(=O)c2cccc3cc(OC)ccc23)c2ccccc21` as the molecule, how does the Ki [5] read?
A: Its Ki is greater than 10000 nM.

Q: With `CN1CCCC[C@@H]1Cn1cc(C(=O)c2cc([N+](=O)[O-])ccc2I)c2ccccc21` as the molecule, how does the EC50 [6] read?
A: Its EC50 is 315 nM.

Q: Which results are given for `CN1CCCCC1Cn1cc(C(=O)c2cc([N+](=O)[O-])ccc2I)c2ccccc21` (racemic)?
A: Ki [7]: 580 nM; Ki [8]: 280 nM; Ki [9]: 7.1 nM; EC50 [6]: 216 nM

Q: Which EC50 [10] does the source give for `CCCn1c(C)c(C(=O)c2cc3ccsc3n2CCC)c2ccccc21` here?
A: Its EC50 is less than 100 nM.

Q: Which EC50 [10] does the source give for `COc1ccc(C(=O)c2cc3cc(C)n(CCN4CCOCC4)c3s2)cc1` here?
A: The EC50 was less than 100 nM.

Q: For `CCCCCCC(C)(C)c1cc(O)c2c(c1)OC(C)(C)C1CCC(=O)CC21` (centres undefined), which Ratio Ki [11] is on record?
A: Its Ratio Ki is 1.2.

Q: Which EC50 [12] does the source give for `CS(=O)(=O)N1CCc2c(cc(-c3cccc(Cl)c3)c(=O)n2CC2CCC2)C1` here?
A: The EC50 was less than 100 nM.

Q: What about the EC50 [13] of the same molecule?
A: The EC50 was greater than 10000 nM.

Q: For `CCCCC/C=C\C/C=C\C/C=C\C/C=C\CCCC(=O)NC1CC1`, which Ki [14] is on record?
A: The Ki was 2.2 nM.

Q: And the Ki [15]?
A: The Ki was 715 nM.

Q: And the Ratio Ki [16]?
A: The Ratio Ki was 325.

Q: Which Ki [5] does the source give for `CCCCCn1cc(C(=O)c2cccc3ccccc23)c2ccccc21` here?
A: The Ki was 9.5 nM.

Q: Which Ratio Ki [11] does the source give for `CCCCCCC(C)(C)c1cc(OC)c2c(c1)OC(C)(C)[C@@H]1CC=C(C)C[C@@H]21` here?
A: Its Ratio Ki is greater than 790.

Q: With `Cc1sc(NC(=O)N2CCCN(C(=O)C3CCC(F)(F)CC3)CC2)nc1C(C)(C)C` as the molecule, how does the EC50 [17] read?
A: Its EC50 is 0.7 nM.

Q: For `COc1cccc2c(C(=O)N[C@@H]3C(C)(C)[C@@H]4CC[C@@]3(C)C4)nn(CCN3CCOCC3)c12`, which Ki [18] is on record?
A: The Ki was 2 nM.

Q: What about the Ki [5] of the same molecule?
A: Its Ki is 24 nM.

Q: What does the source list for `CC(NC(=O)c1nc(N2CCOCC2)n2ccccc12)C(C)(C)C` (centres undefined)?
A: EC50 [17]: 5.4 nM; Emax [19]: 99.5%; EC50 [20]: > 17000 nM; Ratio Ki [11]: > 3100

Q: For `O=S(=O)(c1ccc(Cl)cc1)c1cnc2c(NCC3CCOCC3)cccc2c1`, which EC50 [21] is on record?
A: The EC50 was less than 1000 nM.

Q: For `COc1cccc2c(C(=O)c3ccc(Br)c4ccccc34)c(C)n(CCN3CCOCC3)c12`, which Ki [5] is on record?
A: Its Ki is greater than 1000 nM.

Q: Which ED50 [22] does the source give for `CCCCCc1cc(O)c2c(c1)OC(C)(C)[C@@H]1CCC(C)=C[C@@H]21` [DRONABINOL] here?
A: Its ED50 is 0.02 mg/kg.

Q: For `C[C@H](NS(=O)(=O)/C=C/c1n[nH]c2c1CCCC[C@@H]2Cc1cccc(F)c1)c1ccccc1`, which EC50 [23] is on record?
A: Its EC50 is 9 nM.

Q: What about the EC50 [24] of the same molecule?
A: The EC50 was greater than 5000 nM.

Q: What about the Ratio Ki [11] of the same molecule?
A: The Ratio Ki was greater than 550.

Q: With `CCCCCCC(C)(C)c1cc(O)c2c(c1)OC(C)(C)[C@@H]1CC=C(OO)C[C@@H]21` as the molecule, how does the Ki [25] read?
A: Its Ki is 0.032 nM.

Q: What about the Ki [26] of the same molecule?
A: The Ki was 1.2 nM.

Q: What about the Ratio Ki [27] of the same molecule?
A: The Ratio Ki was 38.

Q: With `O=C(NCC12CC3CC(CC(C3)C1)C2)c1nn(C2CCCCC2)c2c1CCCCCC2` as the molecule, how does the Activity [28] read?
A: The Activity was 71%.

Q: What does the source list for `O=C(N[C@H](CO)c1ccccc1)c1n[nH]c2c1CCCC[C@H]2Cc1cccc(Cl)c1`?
A: EC50 [23]: 12 nM; EC50 [24]: > 5000 nM

Q: With `CCCCCCC(C)(C)c1cc(O)c2c(c1)OC(C)(C)[C@@H]1CC=C(C)C[C@@H]21` as the molecule, how does the Ratio Ki [11] read?
A: Its Ratio Ki is 1.7.

Q: With `CC(=O)N1CCC(Cn2c(C(C)(C)C)nc3cc(S(=O)(=O)C4CCCC4)ccc32)CC1` as the molecule, how does the EC50 [17] read?
A: Its EC50 is 3 nM.

Q: Which EC50 [29] does the source give for `CC1CN1S(=O)(=O)c1ccc2c(c1)C1(OCCCO1)C(=O)N2CC1CC1` (centres undefined) here?
A: The EC50 was 2 nM.

Q: For `CNC(=O)[C@@H](NC(=O)c1nc(-c2ccccc2)n2c1CN(C)CCC2)C(C)(C)C`, which EC50 [17] is on record?
A: The EC50 was 10 nM.

Q: And the EC50 [20]?
A: Its EC50 is greater than 10000 nM.
